Test results: PubChem BioAssay (NCI)
“And” between values parts separate entries of the source, which are not always exact repeats. Equal values may be shown once.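 Exposure lasted 48 hours, with cells grown in 96-well plates and compounds tested at five concentrations. The concentration for 50% growth inhibition is given as GI50. TGI marks complete inhibition of growth.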

How the values were obtained:
Experiment in all cases: NCI tumour cell line growth inhibition, 48 h
[1] = tested on: UACC-257 melanoma
[2] = tested on: HOP-92 NSCLC
[3] = tested on: A498 renal
[4] = tested on: SK-MEL-2 melanoma
[5] = tested on: IGROV1 ovarian
[6] = tested on: NCI-H226 lung
[7] = tested on: NCI-H23 lung
[8] = tested on: MALME-3M melanoma
[9] = tested on: HOP-62 NSCLC
[10] = tested on: COLO 205 colon
[11] = tested on: KM12 colon
[12] = tested on: SK-OV-3 ovarian
[13] = tested on: SNB-75 CNS
[14] = tested on: OVCAR-3 ovarian
[15] = tested on: OVCAR-8 ovarian
[16] = tested on: MOLT-4 leukemia
[17] = tested on: HL-60(TB) leukemia
[18] = tested on: HCT-116 colon
[19] = tested on: SF-268 CNS
[20] = tested on: RPMI-8226 leukemia
[21] = tested on: CCRF-CEM leukemia
[22] = tested on: UO-31 renal
[23] = tested on: U251 CNS
[24] = tested on: SW-620 colon
[25] = tested on: ACHN renal
[26] = tested on: PC-3 prostate
[27] = tested on: RXF 393 renal
[28] = tested on: DU-145 prostate
[29] = tested on: HS 578T breast
[30] = tested on: NCI-H460 lung
[31] = tested on: A549 NSCLC
[32] = tested on: OVCAR-5 ovarian
[33] = tested on: SR leukemia
[34] = tested on: SK-MEL-28 melanoma
[35] = tested on: HCT-15 colon
[36] = tested on: M14 melanoma
[37] = tested on: 786-0 renal
[38] = tested on: TK-10 renal
[39] = tested on: NCI/ADR-RES ovarian
[40] = tested on: SNB-19 CNS
[41] = tested on: SF-539 CNS
[42] = tested on: MDA-MB-231 breast

## C/C=C/C[C@@H](C)C(=O)C1C(=O)N[C@@H](C(C)C)C(=O)N(C)CC(=O)N(C)[C@@H](CC(C)C)C(=O)N[C@@H](C(C)C)C(=O)N(C)[C@@H](CC(C)C)C(=O)N[C@@H](C)C(=O)N[C@@H](C)C(=O)N(C)[C@@H](CC(C)C)C(=O)N(C)[C@@H](CC(C)C)C(=O)N(C)[C@@H](C(C)C)C(=O)N1C (some centres not stated)
[1]
  GI50: 45500 nM
  TGI: > 20500 nM and 67000 nM
[2]
  TGI: > 20500 nM
[3]
  GI50: 50400 nM
  TGI: 71500 nM
[4]
  GI50: 40800 nM
  TGI: 76300 nM
[5]
  GI50: 20800 nM
  TGI: 65600 nM
[6]
  GI50: 45300 nM
  TGI: 18400 nM and 83200 nM
[7]
  GI50: 47000 nM
  TGI: > 20500 nM
[8]
  GI50: 75800 nM

## C/C(=C\C(=N\N=C(N)N)c1ccc(Cl)cc1)c1ccc(Cl)cc1
[9]
  GI50: 45.4 nM
  TGI: 1620 nM
[10]
  GI50: 19.8 nM
  TGI: 34.3 nM
[11]
  GI50: 1350 nM
  TGI: 2690 nM
[12]
  GI50: 1690 nM
  TGI: 3080 nM
[13]
  GI50: 1480 nM
  TGI: 2910 nM
[14]
  GI50: 1720 nM
  TGI: 3210 nM
[15]
  GI50: 1180 nM
  TGI: 2900 nM
[16]
  GI50: 276 nM
  TGI: 950 nM
[17]
  GI50: 2030 nM
  TGI: 3780 nM
[18]
  GI50: 251 nM
  TGI: 712 nM
[19]
  GI50: 1370 nM
  TGI: 3060 nM
[20]
  GI50: 2190 nM
  TGI: 5140 nM
[2]
  GI50: 918 nM
  TGI: 2310 nM
[21]
  GI50: 112 nM
  TGI: 1940 nM
[22]
  GI50: 1440 nM
  TGI: 2850 nM
[23]
  GI50: 924 nM
  TGI: 2140 nM
[24]
  GI50: 470 nM
  TGI: 1730 nM
[25]
  GI50: 42.4 nM
  TGI: 1510 nM
[26]
  GI50: 1290 nM
  TGI: 2690 nM
[27]
  GI50: 1710 nM
  TGI: 3100 nM
[6]
  GI50: 2170 nM
  TGI: 4750 nM
[28]
  GI50: 146 nM
  TGI: 1500 nM
[29]
  GI50: 2080 nM
  TGI: 4550 nM
[30]
  GI50: 1300 nM
  TGI: 2660 nM
[31]
  GI50: 424 nM
  TGI: 1560 nM

## COc1ccc2nc3cc(Cl)ccc3c(N)c2c1
[32]
  GI50: 2090 nM
  TGI: 3660 nM
[1]
  GI50: 1930 nM
  TGI: 3480 nM
[33]
  GI50: 236 nM
  TGI: 591 nM
[34]
  GI50: 2010 nM
  TGI: 3510 nM
[35]
  GI50: 713 nM
  TGI: 2970 nM
[29]
  GI50: 2860 nM
  TGI: > 100000 nM
[36]
  GI50: 1940 nM
  TGI: 3710 nM

## Cc1n(Cc2ccc3ccccc3c2)c2ccccc2[n+]1Cc1ccc2ccccc2c1
[37]
  GI50: 1750 nM
  TGI: 3320 nM
[12]
  GI50: 1650 nM
  TGI: 3110 nM
[32]
  GI50: 1420 nM
  TGI: 2820 nM
[1]
  GI50: 1240 nM
  TGI: 2790 nM
[20]
  GI50: 29.1 nM
  TGI: 1480 nM
[34]
  GI50: 1540 nM
  TGI: 3180 nM
[2]
  GI50: 31.7 nM
  TGI: 2060 nM
[22]
  GI50: 1500 nM
  TGI: 2870 nM
[25]
  GI50: 2460 nM
  TGI: 6490 nM
[38]
  GI50: 1550 nM
  TGI: 3030 nM
[3]
  GI50: 1350 nM
  TGI: 2880 nM
[39]
  GI50: 19200 nM
  TGI: 87600 nM
[40]
  GI50: 1350 nM
  TGI: 2770 nM
[41]
  GI50: 1530 nM
  TGI: 2910 nM
[28]
  GI50: 1630 nM
  TGI: 3040 nM
[42]
  GI50: 1330 nM
  TGI: 2710 nM
[31]
  GI50: 1760 nM
  TGI: 3400 nM
